# From patent publication US8859513B2, “Use of 1-beta-D-ribofuranosyl-1H-1,2,4-triazole-3-carboxamide for the treatment of infectious salmon anemia” (Laboratorio de Diagnostico Gam, S.A., priority 2010, dated 2014)
# Like-named read-outs stand apart in the source and are kept apart here.
# How the values were obtained:
# ISA virus [1] = assay: Inhibition assay of the replicative cycle of ISAV in SHK-1 cells (real-time RT-PCR of supernatant); type: cell-based, Infectious Salmon Anemia Virus
# ISA virus [2] = conditions: for hematocrit: untreated infected C3 42.1%
# ISA virus [3] = conditions: 400 μg/Kg intraperitoneal
# [4] = tested on: VHSV virus (Viral Hemorrhagic Septicemia Virus); conditions: cited from earlier work
# IPNV = conditions: cited from earlier work
# RNA viruses = conditions: regularly shown, in general; read-out: EC50 values (effective concentration 50%); cited from earlier work
# [5] = patients treated with Rebetol; cited from earlier work
# in vitro = conditions: Atlantic salmon
# [6] = Toxicity in healthy uninfected smolt fish (tank C2), oral medicated feed; conditions: tank C2, dose of 1600 μg/mL (so in the source), normal 44-64%
smiles,measurement,setting,value
CCOC(=O)C1=C[C@@H](OC(CC)CC)[C@H](NC(C)=O)[C@@H](N)C1 [oseltamivir],inhibition of the replication of ISA virus,"ISA virus [1]; concentrations as high as 300 μg/mL, FIG. 1",no more than 60%
"NC(=O)c1ncn([C@@H]2O[C@H](CO)[C@@H](O)[C@H]2O)n1 [ribavirin, 1-beta-D-ribofuranosyl-1H-1,2,4-triazole-3-carboxamide]",EC50,"ISA virus [1]; Infectious salmon anemia virus, 72 h, read-out: concentration which inhibits 50% of ISA virus replication (EC50)",~0.4 µg/mL
same,viral load in dead fish,"ISA virus [2]; highest dose (T1) compared with T2 and untreated C3, FIG. 8",significantly lower
same,viral load in intraperitoneally infected fish,"ISA virus [2]; highest dose (T1), FIG. 9",lower
same,signs at necropsy,"ISA virus [2]; infected treated fish of tanks T1 and T2, FIGS. 14 and 15",mild inflammatory signs
same,viral load in intraperitoneally infected fish versus untreated (C3),"ISA virus [2]; lowest dose (T2), FIG. 9",practically the same
same,hematocrit,"ISA virus [2]; tank T1, dose 800 μg/mL (so in the source)",~45%
same,hematocrit,"ISA virus [2]; tank T2, dose 400 μg/mL (so in the source)",~45%
same,viral load versus untreated fish (C3),"ISA virus [2]; treated fish T1 (800 μg/kg) and T2 (400 μg/kg), heart, real-time RT-PCR",in all cases lower than that of the untreated fish
same,condition of the analyzed organs during necropsies,ISA virus [3],slight improvement
same,viral load over treatment days,"ISA virus [3]; heart, FIG. 17",downward trend
same,RNA inhibition,"[4]; 25 μg/ml added at 0 hours post infection, at 10 hours post infection",99.8%
same,inhibition of the virus,"[4]; EPC cells, concentrations of 5, 10 and 25 μg/ml",strong inhibition
same,effect of the higher dose on rate of death,IPNV; 400 μg,produced no greater decrease in the rate of death
same,decrease in rate of dead fish,"IPNV; bath exposure once during two hours, increasing concentrations",about 5%
same,EC50,RNA viruses,≥ 1000 nM
same,primary toxicity,[5],triggers hemolytic anemia
same,CC50 at 3 days,in vitro,> 400 µg/mL
same,average hematocrit,[6],54%
O=C(O)C1=C[C@@H](O)[C@@H](O)[C@H](O)C1 [shikimic acid],viral replication inhibition,"ISA virus [1]; up to concentrations of 300 μg/ml, FIG. 2",no viral replication inhibition
